Measured values as given in BigSolDB 2.1.

CN(CCOc1ccc(CC2SC(=O)NC2=O)cc1)c1ccccn1 (configuration not stated)
solubility (mole fraction)
Conditions | in acetone | in acetonitrile | in ethanol | in ethyl acetate | in isopropanol | in methanol | in methyl acetate | in n-butanol | in n-butyl acetate | in n-propanol
283.15 K | 0.00177 | 0.000267 | 0.000245 | 0.00123 | 0.00013 | 0.000139 | 0.00123 | 0.000341 | 0.000926 | 0.000276
293.15 K | 0.00278 | 0.000453 | 0.000341 | 0.00205 | 0.000173 | – | 0.00205 | 0.000371 | 0.00117 | 0.00028
303.15 K | 0.00455 | 0.000744 | 0.000458 | 0.003 | 0.000282 | 0.000444 | 0.00335 | 0.00042 | 0.00235 | 0.000323
313.15 K | 0.00691 | 0.00126 | 0.00067 | 0.00441 | 0.000529 | 0.000745 | 0.0052 | 0.00063 | 0.00355 | 0.000741
323.15 K | 0.00992 | – | 0.00124 | 0.00649 | 0.000992 | 0.00132 | 0.00795 | 0.00147 | 0.00505 | 0.00133
333.15 K | – | 0.00352 | 0.00244 | 0.0118 | 0.00218 | 0.00235 | 0.0126 | 0.00293 | 0.0092 | 0.0029
